Data published in patent US12551532B2, “Long-acting amylin receptor agonists and uses thereof” (Eli Lilly and Company, priority 2021, dated 2026).
Starred links: 1 amine or outer side, 2 acyl side, 3 side chain; linkers in the order of their positions; H or OH if unused. Positions of bridges follow the written chain, without caps; N, C: chain ends. Non-standard residues stand in square brackets, D forms with d. Residues, ends and D or L forms follow the SMILES beside them. Groups on a side chain read outwards from the residue. *: point of attachment. C20 diacid = O=C(O)CCCCCCCCCCCCCCCCCCC(=O)*; γGlu = O=C(O)[C@H](CCC(=O)[*:2])N[*:1]; αMeF = C[C@](N)(Cc1ccccc1)C(=O)O; NMeD = CN[C@@H](CC(=O)O)C(=O)O; NMeN = CN[C@@H](CC(N)=O)C(=O)O; Orn = NCCC[C@H](N)C(=O)O; CH2 = C([*:1])[*:2]

What was measured:
CD4+ T cells = experiment: T cell proliferation assay; conditions: 7-10 donors with diverse MHC
Method: This assay assesses the ability of tested antibodies or tested MAPPS peptides to activate CD4+ T cells by inducing cellular proliferation. CD8+ T cell depleted PBMC's are prepared and labeled with CFSE. Each sample is tested with media control, keyhole limpet haemocyanin (KLH; positive clinical benchmark control), tested antibodies, or tested MAPPS peptides. Cultures are incubated for 7 days. On day 7, samples are analyzed by flow cytometry.

human dendritic cells = assay type: cell-based
Method: MAPPS profiles the MHC-II presented peptides on human dendritic cells treated with tested molecules. CD14+ cells, isolated from the PBMCs of normal human donors, are cultured and differentiated into immature DCs by incubation with IL-4 and GM-CSF. On day 4, culture media is replaced with fresh media containing tested molecules. On day 5, LPS is added to transform the cells into mature DCs. On day 6, cells are lysed in RIPA buffer with protease inhibitors. Immunoprecipitation of MHC-II complexes are performed using biotinylated anti-MHC-II antibody coupled to streptavidin beads. The bound complex is eluted and filtered. The isolated MHC-II peptides are analyzed by a mass spectrometer. Peptide identifications are generated by an internal proteomics pipeline using search algorithms with no enzyme and a bovine/human database with test sequences appended to the database. A KNIME workflow is used to process the identification files from the samples. Peptides identified from the test articles are aligned against the parent sequence of the test molecule. The output is used to determine the percentage of donors displaying MHC-II peptides from regions of the test molecule. Compound II, Compound IV, Compound VI, Compound VIII, a compound representative of U.S. Pat. No. 9,023,789 (hereinafter “Compound '789”), and Pramlintide are tested in the MAPPs assay.

human CT receptors = target: T1, human CT receptors (Homo sapiens, UniProt P30988); experiment: hCTR cAMP functional activity (HTRF); assay type: cell-based; conditions: ±SE; UMUC3 cells overexpressing hCTR; relative EC50
T1 construct: expressed in transfected cells
T1 sequence (P30988 25-474): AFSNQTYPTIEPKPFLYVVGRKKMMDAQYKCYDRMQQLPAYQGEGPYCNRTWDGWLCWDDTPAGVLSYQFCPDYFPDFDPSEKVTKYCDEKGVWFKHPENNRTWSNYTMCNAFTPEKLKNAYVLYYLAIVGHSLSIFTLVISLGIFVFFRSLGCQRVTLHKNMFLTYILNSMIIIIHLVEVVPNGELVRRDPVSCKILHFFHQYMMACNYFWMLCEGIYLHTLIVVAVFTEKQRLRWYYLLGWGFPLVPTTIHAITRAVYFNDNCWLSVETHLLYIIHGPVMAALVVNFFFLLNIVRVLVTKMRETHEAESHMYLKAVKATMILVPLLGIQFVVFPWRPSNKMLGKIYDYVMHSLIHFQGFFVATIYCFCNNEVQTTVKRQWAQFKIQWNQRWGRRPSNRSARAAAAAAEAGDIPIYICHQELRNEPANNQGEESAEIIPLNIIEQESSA
Method: The AMY1 and CT receptors are GPCRs that are functionally coupled to Gas proteins. […] In vitro activity of peptides is measured by the amount of cAMP formed in human AMY1R and CTR overexpressed cells.
Human CT receptors are stably expressed in human urinary bladder cells (UM-UC-3, or UMUC3) under control of a pcDNA expression vector. […] After 20 days under selection, the mRNA levels from different clones are measured to confirm the expression of hCTR. To determine the function of over-expressed hCTR cells, the intracellular cAMP levels in response to salmon calcitonin are measured and compared to the expression of hCTR mRNA in each clone.
hAMY1R cells are cultured in MEM 1× (Corning) supplemented with 10% FBS, 1% antibiotic/antimycotic solution, 1 mM sodium pyruvate, 1×MEM NEAA, 1× GlutaMAX-I, 200 μg/mL hygromycin B, and 0.4 μg/mL puromycin. The hCTR cells are cultured in the same medium lacking the puromycin. Cultured cells are grown to 70% confluency and then incubated overnight with fresh medium.
Peptides diluted in DMSO are added (200 nL/well) in a 1:3 dilution series using ECHO acoustic liquid handler (Beckman). Cultured cells are detached with TrypLE Express (Gibco), resuspended in assay buffer, and 10 μL containing 1200 cells/well (hCTR) or 1500 cells/well (hAMY1R) are dispensed into each well. The plates are incubated at room temperature for 1 hour.
The amount of intracellular cAMP is quantitated using HTRF technology (Homogeneous Time Resolved Fluorescence; Cisbio) as per vendor instructions. Briefly, 10 μL cAMP-d2 conjugate and 10 μL anti-cAMP-cryptate conjugate in lysis buffer are incubated with the treated cells at room temperature for 60 min. […] The raw data are converted to cAMP amount (pmol/well) using a cAMP standard curve generated for each experiment.

hAMY1R = target: T2, hAMY1R (Homo sapiens, UniProt O60894+P30988); experiment: hAMY1R competitive radioligand binding filter assay (125I-rAMY); conditions: ± SE; membranes of hAMY1R overexpressing cells
T2 construct: expressed in transfected cells
Method: The equilibrium dissociation constants (Kd) for the various receptor/radioligand interactions are determined from saturation binding analysis using the same reagents and buffers as described below for compound testing.
The receptor binding affinity (Ki) of rAMY, hCT, and hAMY agonist peptides are determined from a competitive radioligand binding filter assay. The assay buffer consists of (in mM) 50 HEPES, pH 7.1, 5 MgCl2, 5 KCl, 0.2% (w/v) bacitracin, 0.003% (w/v) saponin and is used to dilute radioligand and membrane preparation. Binding reactions are carried out in 0.1 mL total reaction volume in a polystyrene 96 deep-well assay block. […] Test compounds and non-specific binding (NSB—defined as 300 nM rAMY) are added to aliquots of radioactivity buffer. […] The binding reaction is initiated by the addition of 0.05 mL of 200 μg/mL hAMY1R diluted in assay buffer to the radioactivity. Assay blocks are gently vortexed, sealed with parafilm, and incubated at RT for approximately 20 hours. […] At the end of the incubation, bound ligand is separated from free by addition of an ice cold quench buffer consisting of 100 mM NaCl, 50 mM TRIS-HCl pH 7.1 and immediately collected over the filter mat by vacuum filtration with a TomTec 96 well filter harvester using the following filter protocol (Dry time, 7; Cycle 3 repeat, 0; Wash Time, 1; Soak Time, 1; 1st Aspirate Time, 4; Wash/Aspirate Time, 7; 2nd Aspirate, 4; air pressure 2 PSI).

[1] = system: pre-existing antibodies (ADA) in normal human serum; experiment: Pre-existing reactivity (ACE assay format); conditions: >50 donors; treatment-naive normal human serum
Method: This assay assesses the presence of pre-existing antibodies (ADA) against the tested molecules in treatment-naive normal human serum (NHS). Diluted NHS is incubated overnight on a Pierce Streptavidin plate coated with biotinylated tested molecules. On the following day, the captured binding proteins are acid eluted, hard-coated to a Mesoscale (MSD) plate, and detected with a combination of biotin-labeled molecule and ruthenium-labeled streptavidin. If anti-drug antibodies are present, they will bind the labeled drug and the resulting signal is referred to as Tier 1 signal (expressed as electrochemiluminescence). This signal is confirmed in Tier 2 by adding excess unlabeled tested molecule in the detection step, which results in the suppression of the Tier 1 signal. The presence of pre-existing anti-drug antibodies is expressed as magnitude of the 90th percentile of Tier 2 inhibition. The 90th percentile of Tier 2 inhibition, is a statistical tool to assess the magnitude of specificity of Tier 1 reactivity. This 90th percentile is used to rank molecules in terms of ADA risk.

T2 sequence (O60894 27-148 partner, one chain of several): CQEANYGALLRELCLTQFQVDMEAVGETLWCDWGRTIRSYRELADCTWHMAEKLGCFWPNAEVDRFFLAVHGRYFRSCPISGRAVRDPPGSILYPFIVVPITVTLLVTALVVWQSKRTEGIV

MAPPS Assay donors displayed peptides (human dendritic cells) | MAPPS Assay immunogenicity risk (human dendritic cells) | EC50 (human CT receptors) [nM] | Ki (hAMY1R) [nM] | Pre-existing Reactivity 90th percentile T2 inhibition [1] [%] | SMILES | T Cell Proliferation Assay: protein, immunogenicity risk (CD4+ T cells) | T Cell Proliferation Assay: protein, positive donors (CD4+ T cells) | peptides displayed on MHC-II complexes (human dendritic cells)
no peptides | Low Risk | 2.34 ± 0.272 | 0.017 ± 0.006 | 48.8 | CC(C)C[C@H](NC(=O)[C@H](CCCN)NC(=O)CNC(=O)[C@@H](NC(=O)[C@H](C)NC(=O)[C@@H]1CSCSC[C@H](NC(=O)CC[C@H](N)C(=O)O)C(=O)N[C@@H](CC(N)=O)C(=O)N[C@@H]([C@@H](C)O)C(=O)N[C@@H](C)C(=O)N[C@@H]([C@@H](C)O)C(=O)N1)[C@@H](C)O)C(=O)N[C@@H](C)C(=O)N[C@@H](CCC(=O)O)C(=O)N[C@@](C)(Cc1ccccc1)C(=O)N[C@@H](CC(C)C)C(=O)N[C@H](C(=O)N[C@@H](CCCNC(=N)N)C(=O)N[C@@H](CO)C(=O)N[C@@H](CO)C(=O)N[C@@H](CC(N)=O)C(=O)N(C)[C@@H](CC(N)=O)C(=O)N[C@@H](Cc1ccccc1)C(=O)NCC(=O)N1CCC[C@H]1C(=O)N[C@@H](CCCCNC(=O)CC[C@H](NC(=O)CC[C@H](NC(=O)CCCCCCCCCCCCCCCCCCC(=O)O)C(=O)O)C(=O)O)C(=O)N[C@@H](CC(C)C)C(=O)N1CCC[C@H]1C(=O)N1CCC[C@H]1C(=O)N[C@H](C(=O)N[C@@H](CCC(=O)O)C(=O)N[C@H](C(=O)NCC(=O)N[C@@H](CO)C(=O)N[C@@H](CC(N)=O)C(=O)N[C@H](C(=O)N[C@@H](Cc1ccc(O)cc1)C(N)=O)[C@@H](C)O)C(C)C)[C@@H](C)O)C(C)C [Compound II] (γGlu-CNTATCATG[Orn]LAE[αMeF]LVRSSN[NMeN]FGPK([γGlu-γGlu-C20 diacid])LPPTEVGSNTY-NH2; linker 1-6 via CH2) | Low Risk | (0/9 | no peptides displayed on MHC-II complexes
no peptides | Low Risk | 6.14 ± 0.764 | 0.0296 ± 0.0099 | 33.2 | CC(C)C[C@H](NC(=O)[C@H](CCCN)NC(=O)CNC(=O)[C@@H](NC(=O)[C@H](C)NC(=O)[C@@H]1CSCSC[C@H](NC(=O)CC[C@H](N)C(=O)O)C(=O)N[C@@H](CC(N)=O)C(=O)N[C@@H]([C@@H](C)O)C(=O)N[C@@H](C)C(=O)N[C@@H]([C@@H](C)O)C(=O)N1)[C@@H](C)O)C(=O)N[C@@H](C)C(=O)N[C@@H](CCC(=O)O)C(=O)N[C@@](C)(Cc1ccccc1)C(=O)N[C@@H](CC(C)C)C(=O)N[C@H](C(=O)N[C@@H](CCCNC(=N)N)C(=O)N[C@@H](CO)C(=O)N[C@@H](CO)C(=O)N[C@@H](CC(N)=O)C(=O)N(C)[C@@H](CC(=O)O)C(=O)N[C@@H](Cc1ccccc1)C(=O)NCC(=O)N1CCC[C@H]1C(=O)N[C@@H](CCCCNC(=O)CC[C@H](NC(=O)CC[C@H](NC(=O)CCCCCCCCCCCCCCCCCCC(=O)O)C(=O)O)C(=O)O)C(=O)N[C@@H](CC(C)C)C(=O)N1CCC[C@H]1C(=O)N1CCC[C@H]1C(=O)N[C@H](C(=O)N[C@@H](CCC(=O)O)C(=O)N[C@H](C(=O)NCC(=O)N[C@@H](CO)C(=O)N[C@@H](CC(N)=O)C(=O)N[C@H](C(=O)N[C@@H](Cc1ccc(O)cc1)C(N)=O)[C@@H](C)O)C(C)C)[C@@H](C)O)C(C)C [Compound IV, γE-CNTATCATG-Orn-LAE-αMeF-LVRSSN-NMeD-FGPKLPPTEVGSNTY-NH2] (γGlu-CNTATCATG[Orn]LAE[αMeF]LVRSSN[NMeD]FGPK([γGlu-γGlu-C20 diacid])LPPTEVGSNTY-NH2; linker 1-6 via CH2) | Low Risk | (0/9 | no peptides displayed on MHC-II complexes
no peptides | Low Risk | 13.2 ± 2.23 | 0.0445 ± 0.0082 | 43.9 | CC[C@H](C)[C@H](NC(=O)[C@@H]1CCCN1C(=O)CNC(=O)[C@H](Cc1ccccc1)NC(=O)[C@H](CC(=O)O)N(C)C(=O)[C@H](CC(N)=O)NC(=O)[C@H](CO)NC(=O)[C@H](CO)NC(=O)[C@H](CCCNC(=N)N)NC(=O)[C@@H](NC(=O)[C@H](CC(C)C)NC(=O)[C@](C)(Cc1ccccc1)NC(=O)[C@H](CCC(=O)O)NC(=O)[C@H](C)NC(=O)[C@H](CC(C)C)NC(=O)[C@H](CCCN)NC(=O)CNC(=O)[C@@H](NC(=O)[C@H](C)NC(=O)[C@@H]1CSCSC[C@H](NC(=O)[C@@H](N)CCCCNC(=O)CC[C@H](NC(=O)CC[C@H](NC(=O)CCCCCCCCCCCCCCCCCCC(=O)O)C(=O)O)C(=O)O)C(=O)N[C@@H](CCC(=O)O)C(=O)N[C@@H]([C@@H](C)O)C(=O)N[C@@H](C)C(=O)N[C@@H]([C@@H](C)O)C(=O)N1)[C@@H](C)O)C(C)C)C(=O)N[C@@H](CC(C)C)C(=O)N1CCC[C@H]1C(=O)N1CCC[C@H]1C(=O)N[C@H](C(=O)N[C@@H](CCC(=O)O)C(=O)N[C@H](C(=O)NCC(=O)N[C@@H](CO)C(=O)N[C@@H](CC(N)=O)C(=O)N[C@H](C(=O)N[C@@H](Cc1ccc(O)cc1)C(N)=O)[C@@H](C)O)C(C)C)[C@@H](C)O [Compound VI, KCETATCATG-Orn-LAE-αMeF-LVRSSN-NMeD-FGPILPPTEVGSNTY-NH2] (H-K([γGlu-γGlu-C20 diacid])CETATCATG[Orn]LAE[αMeF]LVRSSN[NMeD]FGPILPPTEVGSNTY-NH2; linker 2-7 via CH2) | Low Risk | (1/9 | no peptides displayed on MHC-II complexes
